Experiment [1] has as its target T1, human adenosine A1 receptor (Homo sapiens, UniProt P30542).
T1 construct: expressed in transfected cells; host or cells: HEK293 cells infected with BacMam (the same paragraph also labels the preparation CHO-hA1)
T1 sequence (P30542 1-326): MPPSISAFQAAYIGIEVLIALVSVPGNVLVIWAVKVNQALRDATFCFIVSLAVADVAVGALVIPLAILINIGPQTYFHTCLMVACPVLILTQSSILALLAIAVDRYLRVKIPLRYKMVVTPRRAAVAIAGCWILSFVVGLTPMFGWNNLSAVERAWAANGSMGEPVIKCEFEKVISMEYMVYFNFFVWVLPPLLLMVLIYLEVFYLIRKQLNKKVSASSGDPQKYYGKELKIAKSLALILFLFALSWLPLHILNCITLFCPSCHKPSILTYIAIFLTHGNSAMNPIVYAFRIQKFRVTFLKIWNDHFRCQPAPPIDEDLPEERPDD
As to the kind of experiment: Inhibition binding assay, human adenosine A1 receptor membranes, [3H]DPCPX. Particulars: 1 nM [3H]DPCPX, 25° C., 1 h; IC50 converted to Ki with Cheng-Prusoff; read-out: A1 pKi (converted). In a few lines:
(§1)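 Membranes from BacMam-infected HEK293 cells (0.2 μg A2A, 1.4 μg A1) incubated 1 h at 25° C with test compound and 1 nM [3H]ZM241385 (A2A; 50 mM Tris-HCl pH 7.4) or [3H]DPCPX (A1; plus 100 mM NaCl, 10 mM MgCl2). Nonspecific: 1 μM CGS15943 or DPCPX. Filtration, scintillation; IC50 converted to Ki via Cheng-Prusoff.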

For experiment [2], the target named is T2, human adenosine A2A receptor (Homo sapiens, UniProt P29274).
T2 construct: expressed in transfected cells; host or cells: HEK293 cells infected with BacMam
The experiment can be described thus: Inhibition binding assay, human adenosine A2A receptor membranes, [3H]ZM241385. To be noted: 1 nM [3H]ZM241385, HEK293-hA2A membranes, 25° C., 1 h; IC50 converted to Ki with Cheng-Prusoff; read-out: A2A pKi (converted). In outline: as §1

T2 sequence (P29274 whole entry): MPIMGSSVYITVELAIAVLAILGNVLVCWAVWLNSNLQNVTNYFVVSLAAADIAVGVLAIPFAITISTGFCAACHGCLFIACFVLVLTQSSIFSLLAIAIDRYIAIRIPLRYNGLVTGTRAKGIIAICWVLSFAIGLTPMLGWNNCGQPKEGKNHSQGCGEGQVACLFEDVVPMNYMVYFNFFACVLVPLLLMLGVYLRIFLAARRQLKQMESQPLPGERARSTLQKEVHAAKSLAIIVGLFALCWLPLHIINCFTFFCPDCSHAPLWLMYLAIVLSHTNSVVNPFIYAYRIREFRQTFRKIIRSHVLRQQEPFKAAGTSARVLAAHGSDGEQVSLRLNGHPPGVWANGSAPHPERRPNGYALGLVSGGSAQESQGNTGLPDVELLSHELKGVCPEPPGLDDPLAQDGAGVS

`Cc1cc(-c2c(-c3ccccc3)nc(N)n3c(=O)n(C[C@H]4CN(C(=O)OC(C)(C)C)CCO4)nc23)cc(C)n1` [Example 2-65, tert-butyl (R)-2-((5-amino-8-(2,6-dimethylpyridin-4-yl)-3-oxo-7-phenyl-[1,2,4]triazolo[4,3-c]pyrimidin-2(3H)-yl)methyl)morpholine-4-carboxylate]: the Ki in experiment [1] is 501 nM; in experiment [2] it was 12.6 nM.
Regarding `Cc1cc(-c2c(-c3ccccc3)nc(N)n3c(=O)n(CC4CCN(C(=O)OC(C)(C)C)CC4)nc23)cc(C)n1` [Example 2-67, tert-butyl 4-[[5-amino-8-(2,6-dimethyl-4-pyridyl)-3-oxo-7-phenyl-[1,2,4]triazolo[4,3-c]pyrimidin-2-yl]methyl]piperidine-1-carboxylate], the figures for the Ki in experiment [1] and in experiment [2] were 1000 nM and 6.31 nM, respectively.
On the same counts, the results for `Cc1cc(-c2c(-c3ccccc3)nc(N)n3c(=O)n(CC4CCNCC4)nc23)cc(C)n1` [Example 2-68, 5-amino-8-(2,6-dimethyl-4-pyridyl)-7-phenyl-2-(4-piperidylmethyl)-[1,2,4]triazolo[4,3-c]pyrimidin-3-one] are greater than 3160 nM and 398 nM.
As to `Cc1cc(-c2c(-c3ccccc3)nc(N)n3c(=O)n(C[C@@H]4CN(C(=O)OC(C)(C)C)CCO4)nc23)cc(C)n1` [Example 2-69, tert-butyl (2S)-2-[[5-amino-8-(2,6-dimethyl-4-pyridyl)-3-oxo-7-phenyl-[1,2,4]triazolo[4,3-c]pyrimidin-2-yl]methyl]morpholine-4-carboxylate], the Ki in experiment [1] was 398 nM; in experiment [2] it was 6.31 nM.
For the compound `Cc1cc(-c2c(-c3ccccc3)nc(N)n3c(=O)n(C4CCCN(C)C4)nc23)cc(C)n1` (centres unmarked) [Example 2-70, 5-amino-8-(2,6-dimethyl-4-pyridyl)-2-(1-methyl-3-piperidyl)-7-phenyl-[1,2,4]triazolo[4,3-c]pyrimidin-3-one], the results for the Ki in experiment [1] and in experiment [2] were 501 nM and 3.98 nM, respectively.
In the case of `Cc1cc(-c2c(-c3ccccc3)nc(N)n3c(=O)n(C[C@@H]4CN(C)CCO4)nc23)cc(C)n1` [Example 2-72, 5-amino-8-(2,6-dimethyl-4-pyridyl)-2-[[(2S)-4-methylmorpholin-2-yl]methyl]-7-phenyl-[1,2,4]triazolo[4,3-c]pyrimidin-3-one], the Ki in experiment [1] is 631 nM; in experiment [2], 15.8 nM.
With `Cc1cc(-c2c(-c3ccccc3)nc(N)n3c(=O)n(C[C@H]4COCCN4)nc23)cc(C)n1` [Example 2-76, 5-amino-8-(2,6-dimethyl-4-pyridyl)-2-[[(3S)-morpholin-3-yl]methyl]-7-phenyl-[1,2,4]triazolo[4,3-c]pyrimidin-3-one], the Ki in experiment [1] is 631 nM; in experiment [2] it was 15.8 nM.
For the compound `Cc1cc(-c2c(-c3ccccc3)nc(N)n3c(=O)n(C[C@H]4COCCN4C)nc23)cc(C)n1` [Example 2-77, 5-amino-8-(2,6-dimethyl-4-pyridyl)-2-[[(3S)-4-methylmorpholin-3-yl]methyl]-7-phenyl-[1,2,4]triazolo[4,3-c]pyrimidin-3-one], the results for the Ki in experiment [1] and in experiment [2] were 398 nM and 3.16 nM, respectively.
In the case of `Cc1cc(-c2c(-c3ccccc3)nc(N)n3c(=O)n(CC4CCN(C)CC4)nc23)cc(C)n1` [Example 2-78, 5-amino-8-(2,6-dimethyl-4-pyridyl)-2-[(1-methyl-4-piperidyl)methyl]-7-phenyl-[1,2,4]triazolo[4,3-c]pyrimidin-3-one], the Ki in experiment [1] is greater than 3160 nM; in experiment [2], 200 nM.
On to `Cc1cc(-c2c(-c3ccccc3)nc(N)n3c(=O)n(C[C@@H]4COCCN4)nc23)cc(C)n1` [Example 2-79, (R)-5-amino-8-(2,6-dimethylpyridin-4-yl)-2-(morpholin-3-ylmethyl)-7-phenyl-[1,2,4]triazolo[4,3-c]pyrimidin-3(2H)-one], for which the Ki in experiment [1] was 794 nM; in experiment [2] it was 15.8 nM.

The values above are taken from US12528815B2, “5-amino-8-(4-pyridyl)-[1,2,4]triazolo[4,3-c]pyrimidin-3-one compounds for use against cancer” (Nxera Pharma UK Limited, priority 2020, dated 2026).
